Test results from PMC11882969 (Nature Communications, 2025).
Where “and” joins values, the source holds several entries; their conditions need not be identical. Equal values may be shown once.

What was measured:
Type in all cases: cell-based
[1] = biological target: panel of 320 non-olfactory GPCRs (Homo sapiens, UniProt Q8TDT2)
[2] = biological target: panel of 320 non-olfactory GPCRs (Homo sapiens, UniProt Q9UNW8)
[3] = biological target: panel of 320 non-olfactory GPCRs (Homo sapiens, UniProt P48145)
[4] = biological target: panel of 320 non-olfactory GPCRs (Homo sapiens, UniProt Q6U736)
Chain of panel of 320 non-olfactory GPCRs (Homo sapiens, UniProt Q6U736) (Q6U736 whole entry): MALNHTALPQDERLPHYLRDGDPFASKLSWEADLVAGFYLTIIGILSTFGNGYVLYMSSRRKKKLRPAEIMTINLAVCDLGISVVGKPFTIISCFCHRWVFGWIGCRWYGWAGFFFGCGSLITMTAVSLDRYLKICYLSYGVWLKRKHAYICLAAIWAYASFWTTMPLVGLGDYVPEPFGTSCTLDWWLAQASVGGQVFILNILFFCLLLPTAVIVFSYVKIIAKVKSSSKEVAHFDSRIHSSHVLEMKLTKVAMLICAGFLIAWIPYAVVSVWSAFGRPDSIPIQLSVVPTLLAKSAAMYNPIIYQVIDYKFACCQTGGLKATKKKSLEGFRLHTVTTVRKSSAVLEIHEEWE

[5] = biological target: panel of 320 non-olfactory GPCRs (Homo sapiens, UniProt O43194)
[6] = biological target: panel of 320 non-olfactory GPCRs (Homo sapiens, UniProt Q01726)
Chain of panel of 320 non-olfactory GPCRs (Homo sapiens, UniProt Q01726) (Q01726 whole entry): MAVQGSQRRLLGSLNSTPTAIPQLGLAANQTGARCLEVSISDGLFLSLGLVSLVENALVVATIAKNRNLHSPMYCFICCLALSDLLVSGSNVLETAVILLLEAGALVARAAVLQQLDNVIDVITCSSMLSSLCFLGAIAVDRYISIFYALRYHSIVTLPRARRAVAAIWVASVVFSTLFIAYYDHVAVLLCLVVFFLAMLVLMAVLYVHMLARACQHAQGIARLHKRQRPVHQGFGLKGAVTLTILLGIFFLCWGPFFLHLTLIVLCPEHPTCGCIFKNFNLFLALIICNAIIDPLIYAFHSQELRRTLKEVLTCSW

[7] = biological target: panel of 320 non-olfactory GPCRs (Homo sapiens, UniProt P46093)
[8] = biological target: panel of 320 non-olfactory GPCRs (Homo sapiens, UniProt Q8NDV2)
[9] = biological target: panel of 320 non-olfactory GPCRs (Homo sapiens, UniProt P37288)
[10] = biological target: panel of 320 non-olfactory GPCRs (Homo sapiens, UniProt O95800)
[11] = biological target: panel of 320 non-olfactory GPCRs (Homo sapiens, UniProt P43220)
[12] = biological target: panel of 320 non-olfactory GPCRs (Homo sapiens, UniProt P49190)
[13] = biological target: panel of 320 non-olfactory GPCRs (Homo sapiens, UniProt O15552)
[14] = biological target: panel of 320 non-olfactory GPCRs (Homo sapiens, UniProt P30550)
[15] = biological target: panel of 320 non-olfactory GPCRs (Homo sapiens, UniProt P33032)
[16] = biological target: panel of 320 non-olfactory GPCRs (Homo sapiens, UniProt Q8IZP9)
Chain of panel of 320 non-olfactory GPCRs (Homo sapiens, UniProt Q8IZP9) (Q8IZP9 38-1017): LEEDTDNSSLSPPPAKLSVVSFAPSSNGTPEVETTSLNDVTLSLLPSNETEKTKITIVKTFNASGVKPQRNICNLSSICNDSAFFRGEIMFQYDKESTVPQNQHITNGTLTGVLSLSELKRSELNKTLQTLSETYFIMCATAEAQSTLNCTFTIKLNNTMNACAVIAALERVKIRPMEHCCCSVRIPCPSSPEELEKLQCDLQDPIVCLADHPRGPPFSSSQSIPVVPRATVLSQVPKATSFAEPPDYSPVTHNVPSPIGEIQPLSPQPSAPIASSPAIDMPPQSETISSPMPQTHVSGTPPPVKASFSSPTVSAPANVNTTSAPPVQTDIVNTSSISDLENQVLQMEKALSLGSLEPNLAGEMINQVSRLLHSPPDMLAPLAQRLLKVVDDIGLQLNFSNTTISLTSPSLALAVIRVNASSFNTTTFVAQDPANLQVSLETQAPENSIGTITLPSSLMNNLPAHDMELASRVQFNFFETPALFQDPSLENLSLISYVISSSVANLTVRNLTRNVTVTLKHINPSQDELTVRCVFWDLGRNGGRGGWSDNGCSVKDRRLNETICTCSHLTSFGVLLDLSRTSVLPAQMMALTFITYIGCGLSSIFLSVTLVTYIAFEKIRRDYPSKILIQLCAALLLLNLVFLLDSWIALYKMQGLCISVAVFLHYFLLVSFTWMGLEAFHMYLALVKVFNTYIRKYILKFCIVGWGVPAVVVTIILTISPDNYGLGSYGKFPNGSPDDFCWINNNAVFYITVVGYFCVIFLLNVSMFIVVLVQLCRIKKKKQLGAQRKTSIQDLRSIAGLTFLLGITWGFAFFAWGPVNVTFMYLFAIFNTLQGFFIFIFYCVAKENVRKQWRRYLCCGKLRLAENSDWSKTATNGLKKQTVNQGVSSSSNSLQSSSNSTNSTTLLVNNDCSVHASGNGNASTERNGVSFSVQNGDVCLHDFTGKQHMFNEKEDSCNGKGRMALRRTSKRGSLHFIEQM

[17] = biological target: panel of 320 non-olfactory GPCRs (Homo sapiens, UniProt P28222)
Chain of panel of 320 non-olfactory GPCRs (Homo sapiens, UniProt P28222) (P28222 whole entry): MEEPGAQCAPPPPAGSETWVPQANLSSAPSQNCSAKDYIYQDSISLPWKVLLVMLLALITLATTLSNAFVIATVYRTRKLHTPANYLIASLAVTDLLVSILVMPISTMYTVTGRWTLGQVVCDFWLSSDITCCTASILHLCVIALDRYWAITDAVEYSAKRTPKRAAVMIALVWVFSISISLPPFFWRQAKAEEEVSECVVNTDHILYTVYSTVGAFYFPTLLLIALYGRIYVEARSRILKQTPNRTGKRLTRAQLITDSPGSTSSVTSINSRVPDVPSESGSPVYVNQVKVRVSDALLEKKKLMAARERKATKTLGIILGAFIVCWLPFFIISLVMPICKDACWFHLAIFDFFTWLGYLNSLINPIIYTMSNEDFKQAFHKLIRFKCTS

[18] = biological target: panel of 320 non-olfactory GPCRs (Homo sapiens, UniProt O15218)
Chain of panel of 320 non-olfactory GPCRs (Homo sapiens, UniProt O15218) (O15218 whole entry): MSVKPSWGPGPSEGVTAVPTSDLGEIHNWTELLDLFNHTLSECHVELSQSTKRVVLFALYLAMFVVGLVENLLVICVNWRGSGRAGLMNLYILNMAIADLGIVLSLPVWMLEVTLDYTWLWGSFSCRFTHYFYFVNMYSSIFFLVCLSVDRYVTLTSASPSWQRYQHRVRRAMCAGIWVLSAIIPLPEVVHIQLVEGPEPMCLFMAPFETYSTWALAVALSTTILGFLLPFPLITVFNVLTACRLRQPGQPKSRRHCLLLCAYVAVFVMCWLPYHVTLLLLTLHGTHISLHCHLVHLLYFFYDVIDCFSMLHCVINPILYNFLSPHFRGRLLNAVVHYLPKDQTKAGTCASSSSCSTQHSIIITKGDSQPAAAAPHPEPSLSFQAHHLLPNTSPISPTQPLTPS

[19] = biological target: panel of 320 non-olfactory GPCRs (Homo sapiens, UniProt P28335, I156V/I160V)
[20] = biological target: panel of 320 non-olfactory GPCRs (Homo sapiens, UniProt Q92847)
[21] = biological target: panel of 320 non-olfactory GPCRs (Homo sapiens, UniProt Q99679)
[22] = biological target: panel of 320 non-olfactory GPCRs (Homo sapiens, UniProt P30542)
Chain of panel of 320 non-olfactory GPCRs (Homo sapiens, UniProt P30542) (P30542 whole entry): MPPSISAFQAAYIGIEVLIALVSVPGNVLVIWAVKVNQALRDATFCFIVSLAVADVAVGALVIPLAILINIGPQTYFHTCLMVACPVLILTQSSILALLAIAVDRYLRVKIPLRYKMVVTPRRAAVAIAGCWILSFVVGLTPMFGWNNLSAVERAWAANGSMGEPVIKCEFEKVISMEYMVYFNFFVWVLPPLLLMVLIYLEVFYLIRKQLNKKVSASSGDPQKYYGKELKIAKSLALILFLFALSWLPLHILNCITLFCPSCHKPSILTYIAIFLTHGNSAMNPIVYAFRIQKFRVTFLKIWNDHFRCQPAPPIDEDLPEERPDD

[23] = biological target: panel of 320 non-olfactory GPCRs (Homo sapiens, UniProt P41143)
[24] = biological target: panel of 320 non-olfactory GPCRs (Homo sapiens, UniProt P41968)
Chain of panel of 320 non-olfactory GPCRs (Homo sapiens, UniProt P41968) (P41968 whole entry): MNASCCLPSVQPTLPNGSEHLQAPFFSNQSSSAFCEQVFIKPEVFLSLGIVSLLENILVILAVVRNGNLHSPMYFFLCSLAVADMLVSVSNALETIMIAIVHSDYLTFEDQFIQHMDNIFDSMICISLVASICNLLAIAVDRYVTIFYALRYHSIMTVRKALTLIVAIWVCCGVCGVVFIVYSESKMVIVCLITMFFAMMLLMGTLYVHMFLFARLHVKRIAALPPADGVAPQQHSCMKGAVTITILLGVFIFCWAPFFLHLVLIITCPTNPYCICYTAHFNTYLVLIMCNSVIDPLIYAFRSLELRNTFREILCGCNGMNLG

[25] = biological target: panel of 320 non-olfactory GPCRs (Homo sapiens, UniProt P29275)
Chain of panel of 320 non-olfactory GPCRs (Homo sapiens, UniProt P29275) (P29275 whole entry): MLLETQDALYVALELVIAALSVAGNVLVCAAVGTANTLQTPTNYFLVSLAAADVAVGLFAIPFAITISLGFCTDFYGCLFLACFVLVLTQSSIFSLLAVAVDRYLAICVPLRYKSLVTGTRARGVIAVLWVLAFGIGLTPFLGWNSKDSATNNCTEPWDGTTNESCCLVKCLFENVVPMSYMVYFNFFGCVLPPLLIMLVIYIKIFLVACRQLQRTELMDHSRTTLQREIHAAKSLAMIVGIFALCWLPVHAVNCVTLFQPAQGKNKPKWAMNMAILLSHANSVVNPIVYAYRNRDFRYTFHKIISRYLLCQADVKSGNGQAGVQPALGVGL

[26] = biological target: panel of 320 non-olfactory GPCRs (Homo sapiens, UniProt Q01718)
[27] = biological target: panel of 320 non-olfactory GPCRs (Homo sapiens, UniProt Q15761)
[28] = biological target: panel of 320 non-olfactory GPCRs (Homo sapiens, UniProt Q86VZ1)
Chain of panel of 320 non-olfactory GPCRs (Homo sapiens, UniProt Q86VZ1) (Q86VZ1 whole entry): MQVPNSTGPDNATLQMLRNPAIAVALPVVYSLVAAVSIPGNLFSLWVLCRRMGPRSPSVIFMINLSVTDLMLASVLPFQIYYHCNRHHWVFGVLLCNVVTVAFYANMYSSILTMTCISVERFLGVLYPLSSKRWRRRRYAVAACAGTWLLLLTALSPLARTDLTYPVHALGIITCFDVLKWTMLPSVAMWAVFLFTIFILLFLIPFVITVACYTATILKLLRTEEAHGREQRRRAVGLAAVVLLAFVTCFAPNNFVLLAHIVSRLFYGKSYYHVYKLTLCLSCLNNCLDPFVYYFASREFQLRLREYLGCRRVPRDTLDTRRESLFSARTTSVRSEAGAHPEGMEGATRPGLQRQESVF

[29] = biological target: panel of 320 non-olfactory GPCRs (Homo sapiens, UniProt Q86SQ6)
[30] = biological target: panel of 320 non-olfactory GPCRs (Homo sapiens, UniProt Q96P67)
Chain of panel of 320 non-olfactory GPCRs (Homo sapiens, UniProt Q96P67) (Q96P67 whole entry): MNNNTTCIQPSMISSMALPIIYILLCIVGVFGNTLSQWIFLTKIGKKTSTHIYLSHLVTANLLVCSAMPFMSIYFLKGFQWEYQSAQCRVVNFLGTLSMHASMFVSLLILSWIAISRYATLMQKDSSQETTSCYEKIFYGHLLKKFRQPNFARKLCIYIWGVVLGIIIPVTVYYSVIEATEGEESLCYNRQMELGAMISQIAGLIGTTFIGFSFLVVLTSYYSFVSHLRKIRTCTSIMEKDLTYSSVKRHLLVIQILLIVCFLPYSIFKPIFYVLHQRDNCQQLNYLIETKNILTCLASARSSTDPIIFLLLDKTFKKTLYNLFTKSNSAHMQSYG

[31] = biological target: panel of 320 non-olfactory GPCRs (Homo sapiens, UniProt Q13324)
Chain of panel of 320 non-olfactory GPCRs (Homo sapiens, UniProt Q13324) (Q13324 whole entry): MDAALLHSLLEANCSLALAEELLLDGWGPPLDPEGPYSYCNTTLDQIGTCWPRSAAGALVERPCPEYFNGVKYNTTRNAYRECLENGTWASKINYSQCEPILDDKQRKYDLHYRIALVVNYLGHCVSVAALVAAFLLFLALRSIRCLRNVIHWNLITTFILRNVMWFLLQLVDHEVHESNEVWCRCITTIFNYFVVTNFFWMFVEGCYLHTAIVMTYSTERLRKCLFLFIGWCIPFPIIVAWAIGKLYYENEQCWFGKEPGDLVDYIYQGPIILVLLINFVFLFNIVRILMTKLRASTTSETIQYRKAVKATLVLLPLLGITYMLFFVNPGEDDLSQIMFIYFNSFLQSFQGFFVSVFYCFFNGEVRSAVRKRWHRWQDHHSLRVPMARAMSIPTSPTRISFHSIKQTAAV

[32] = biological target: panel of 320 non-olfactory GPCRs (Homo sapiens, UniProt Q96P66)
[33] = biological target: panel of 320 non-olfactory GPCRs (Homo sapiens, UniProt P46089)
[34] = biological target: panel of 320 non-olfactory GPCRs (Homo sapiens, UniProt Q8N6U8)
[35] = biological target: panel of 320 non-olfactory GPCRs (Homo sapiens, UniProt Q96RI0)
[36] = biological target: panel of 320 non-olfactory GPCRs (Homo sapiens, UniProt Q96RI9)
[37] = biological target: panel of 320 non-olfactory GPCRs (Homo sapiens, UniProt Q96P68)
Chain of panel of 320 non-olfactory GPCRs (Homo sapiens, UniProt Q96P68) (Q96P68 whole entry): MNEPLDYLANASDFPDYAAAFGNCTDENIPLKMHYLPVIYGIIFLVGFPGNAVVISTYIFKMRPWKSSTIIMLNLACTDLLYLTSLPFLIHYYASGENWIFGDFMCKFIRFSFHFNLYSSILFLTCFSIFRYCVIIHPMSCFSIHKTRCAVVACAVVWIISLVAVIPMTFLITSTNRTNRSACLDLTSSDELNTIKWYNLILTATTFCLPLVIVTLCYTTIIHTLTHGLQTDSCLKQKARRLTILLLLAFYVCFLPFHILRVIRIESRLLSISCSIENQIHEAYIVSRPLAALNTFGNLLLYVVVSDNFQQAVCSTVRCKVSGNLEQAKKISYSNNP

| Compound | Fold of Basal RLU [1] | Fold of Basal RLU [2] | Fold of Basal RLU [3] | Fold of Basal RLU [4] | Fold of Basal RLU [5] | Fold of Basal RLU [6] | Fold of Basal RLU [7] | Fold of Basal RLU [8] | Fold of Basal RLU [9] | Fold of Basal RLU [10] | Fold of Basal RLU [11] | Fold of Basal RLU [12] | Fold of Basal RLU [13] | Fold of Basal RLU [14] | Fold of Basal RLU [15] | Fold of Basal RLU [16] | Fold of Basal RLU [17] | Fold of Basal RLU [18] | Fold of Basal RLU [19] | Fold of Basal RLU [20] | further results |
| --- | --- | --- | --- | --- | --- | --- | --- | --- | --- | --- | --- | --- | --- | --- | --- | --- | --- | --- | --- | --- | --- |
| COC(=O)[C@@](C)(NC(=O)c1cc(C)n(-c2cccc(C(F)(F)F)c2)n1)c1cccs1 [‘1350] | 1.2 fold and 1.1 fold and 0.8 fold and 1.5 fold | 0.8 fold and 1 fold | 1.2 and 1.8 and 1.3 and 1.4 | 2.3 fold and 1.9 fold | 0.7 and 0.8 and 1 | 0.7 and 0.6 and 1 | 1.1 fold and 0.9 fold and 1 fold | 1.6 fold and 1.8 fold and 1.3 fold | 0.7 and 1 and 0.9 | 1.1 fold and 1 fold and 1.2 fold and 2 fold | 1.1 and 1 and 0.9 and 0.8 | 1 and 0.7 and 0.9 | 0.9 and 1.2 | 0.8 fold and 1.2 fold | 1.3 fold and 1 fold and 1.2 fold and 1.1 fold | 1.1 fold and 1.2 fold and 0.9 fold and 0.7 fold | 1.3 fold and 1.1 fold and 1.2 fold | 1.1 fold and 0.8 fold and 1.4 fold | 0.4 and 0.8 | 1.4 fold and 1.8 fold and 1.6 fold | Fold of Basal RLU [21]: 1 and 0.8 and 1.3; Fold of Basal RLU [22]: 1.2 fold and 1.7 fold and 1.6 fold and 2.1 fold; Fold of Basal RLU [23]: 1 fold and 0.9 fold and 0.8 fold; Fold of Basal RLU [24]: 1.3 and 0.9 and 1.1 and 0.7; Fold of Basal RLU [25]: 0.6 and 0.7 and 1.1; Fold of Basal RLU [26]: 1 and 1.3 and 0.7; Fold of Basal RLU [27]: 1.2 fold and 1 fold; Fold of Basal RLU [28]: 0.6 fold and 1.1 fold and 0.8 fold and 0.7 fold; Fold of Basal RLU [29]: 0.9 fold and 1.1 fold and 1.3 fold; Fold of Basal RLU [30]: 1 fold and 1.1 fold; Fold of Basal RLU [31]: 0.8 and 0.9; Fold of Basal RLU [32]: 1.1 fold and 0.8 fold and 0.9 fold; Fold of Basal RLU [33]: 1 fold and 1.1 fold and 1.4 fold and 1.3 fold; Fold of Basal RLU [34]: 1.2 fold and 1.1 fold and 1 fold; Fold of Basal RLU [35]: 1.5 and 1.6 and 1; Fold of Basal RLU [36]: 1.2 and 1.1 and 1.5; Fold of Basal RLU [37]: 1.1 fold and 1.3 fold and 1.6 fold |
| Cc1cc(C(=O)NC(C)(c2ccco2)c2ccco2)nn1-c1cccc(C(F)(F)F)c1 [‘4936] | 1.1 fold and 0.9 fold and 1 fold | 1.2 fold and 0.9 fold | 0.6 and 1.1 and 0.7 | 1.3 fold and 1.4 fold and 1.1 fold and 1.8 fold | 0.9 and 0.7 and 0.5 | 1.2 and 0.8 and 0.7 and 1.1 | 0.9 fold and 1 fold and 0.8 fold | 2 fold and 1.4 fold and 2.8 fold and 1.7 fold | 0.9 and 0.7 and 1.1 and 1 | 1.7 fold and 1.4 fold and 1.6 fold | 0.9 and 0.7 | 1 and 0.8 and 0.6 | 1.3 and 1.4 and 1.2 and 1.1 | 0.8 fold and 0.6 fold | 1.1 fold and 1.2 fold and 1.3 fold and 1 fold | 0.8 fold and 0.6 fold and 1 fold | 1.4 fold and 1.2 fold and 1.3 fold | 1.7 fold and 1.9 fold and 1.4 fold and 2.5 fold | 0.7 and 0.4 and 0.8 | 1.3 fold and 2.2 fold and 1.6 fold | Fold of Basal RLU [21]: 2.5 and 1.9 and 1.6 and 2.2; Fold of Basal RLU [22]: 6.4 fold and 5.8 fold and 6.3 fold and 7.4 fold; Fold of Basal RLU [23]: 0.7 fold and 1.1 fold and 0.6 fold; Fold of Basal RLU [24]: 1.5 and 0.9; Fold of Basal RLU [25]: 0.9 and 0.7 and 1 and 0.6; Fold of Basal RLU [26]: 1.4 and 1.2 and 1; Fold of Basal RLU [27]: 1.1 fold and 1 fold; Fold of Basal RLU [28]: 0.5 fold and 0.8 fold; Fold of Basal RLU [29]: 0.8 fold and 0.7 fold and 0.9 fold; Fold of Basal RLU [30]: 1 fold and 0.9 fold; Fold of Basal RLU [31]: 0.6 and 0.7; Fold of Basal RLU [32]: 1.2 fold and 1.3 fold; Fold of Basal RLU [33]: 1 fold and 1.1 fold and 1.4 fold; Fold of Basal RLU [34]: 1.1 fold and 1.2 fold; Fold of Basal RLU [35]: 1.2 and 1 and 0.8 and 0.9; Fold of Basal RLU [36]: 0.8 and 1.3 and 1.4; Fold of Basal RLU [37]: 1.3 fold and 1.5 fold and 2.1 fold |
